{
  "source": "patent US20020111282A1",
  "about": "“Antimicrobial compositions containing quaternary ammonium compounds, silanes and other disinfectants with furanones” (priority 2000, published 2002)",
  "key": {"Solubility in water": {"test": "Solubility in water", "format": "physicochemical"}, "Penicillium digitatum": {"tested_on": "Penicillium digitatum", "test": "Zone of inhibition assay on TLC plates overlaid with agar containing fungal spores", "format": "cell-based", "details": "10 μl spotted", "description": "(§1) Fungi used: Alternaria alternata, Aureobasidium pullulans, Cladosporium cladosporioides, Penicillium digitatum Method: Base formulas for A, B, C and D were prepared as described in Table 1 below. Subsequently, test solutions were prepared either by: (1) taking a furanone or a base formula alone; or (2) by adding small amounts of suitably solubilized furanone (i.e., normally using ethanol) to a base formula so as to deliver a series of furanone concentrations in the test solutions (i.e., 10 ug/ml, 5 ug/ml, 1 ug/ml, 500 ng/ml, 100 ng/ml and 10 ng/ml). […] The various test solutions are set out at the left-hand margin of Tables 2A to 2D and can be described as follows: Once the test solutions were prepared, 10 μl of each test solution was spotted onto TLC plates. The plates were overlaid with agar containing fungal spores. The TLC plates were incubated in a high humidity environment until growth could be observed visually. At inhibitory furanone concentrations, a zone of inhibition where no fungal growth was observed formed above the test solution spot. Lower furanone concentrations resulting in a zone of inhibition correspond to higher test solution efficacy."}, "[1]": {"tested_on": "Cladosporium cladosporioides", "test": "Zone of inhibition assay on TLC plates overlaid with agar containing fungal spores", "format": "cell-based", "details": "10 μl spotted", "description": "as §1"}, "Alternaria alternata": {"tested_on": "Alternaria alternata", "test": "Zone of inhibition assay on TLC plates overlaid with agar containing fungal spores", "format": "cell-based", "details": "10 μl spotted", "description": "as §1"}, "Aureobasidium pullulans": {"tested_on": "Aureobasidium pullulans", "test": "Zone of inhibition assay on TLC plates overlaid with agar containing fungal spores", "format": "cell-based", "details": "10 μl spotted", "description": "as §1"}, "[2]": {"details": "10 ng/ml furanone in test solution"}, "[3]": {"details": "100 ng/ml furanone in test solution"}, "[4]": {"details": "500 ng/ml furanone in test solution"}, "[5]": {"details": "1 μg/ml furanone in test solution"}, "[6]": {"details": "10 μg/ml furanone in test solution"}, "[7]": {"details": "5 μg/ml furanone in test solution"}},
  "data": [
    {"compound": "O=C1C=C(Br)/C(=C/Br)O1", "note": "[Furanone 30]", "values": [
      {"measurement": "Solubility in water", "setting": "Solubility in water", "value": "sparingly soluble in water"},
      {"measurement": "Zone of Inhibition with 10 ng/ml of Furanone (mm)", "setting": "Penicillium digitatum; [2]", "value": 0, "unit": "mm"},
      {"measurement": "Zone of Inhibition with 100 ng/ml of Furanone (mm)", "setting": "Penicillium digitatum; [3]", "value": 0, "unit": "mm"},
      {"measurement": "Zone of Inhibition with 500 ng/ml of Furanone (mm)", "setting": "Penicillium digitatum; [4]", "value": "10-19 mm"},
      {"measurement": "Zone of Inhibition with 1 μg/ml of Furanone (mm)", "setting": "Penicillium digitatum; [5]", "value": "12-15 mm"},
      {"measurement": "Zone of Inhibition with 10 μg/ml of Furanone (mm)", "setting": "Penicillium digitatum; [6]", "value": "32-45 mm"},
      {"measurement": "Zone of Inhibition with 10 ng/ml of Furanone (mm)", "setting": "[1]; [2]", "value": 0, "unit": "mm"},
      {"measurement": "Zone of Inhibition with 100 ng/ml of Furanone (mm)", "setting": "[1]; [3]", "value": "9-10 mm"},
      {"measurement": "Zone of Inhibition with 500 ng/ml of Furanone (mm)", "setting": "[1]; [4]", "value": "20-21 mm"},
      {"measurement": "Zone of Inhibition with 1 μg/ml of Furanone (mm)", "setting": "[1]; [5]", "value": "20-30 mm"},
      {"measurement": "Zone of Inhibition with 5 μg/ml of Furanone (mm)", "setting": "[1]; [7]", "value": "40-45 mm"},
      {"measurement": "Zone of Inhibition with 10 μg/ml of Furanone (mm)", "setting": "[1]; [6]", "value": "42-56 mm"},
      {"measurement": "Zone of Inhibition with 10 ng/ml of Furanone (mm)", "setting": "Alternaria alternata; [2]", "value": 0, "unit": "mm"},
      {"measurement": "Zone of Inhibition with 100 ng/ml of Furanone (mm)", "setting": "Alternaria alternata; [3]", "value": "2-3 mm"},
      {"measurement": "Zone of Inhibition with 500 ng/ml of Furanone (mm)", "setting": "Alternaria alternata; [4]", "value": "3-4 mm"},
      {"measurement": "Zone of Inhibition with 5 μg/ml of Furanone (mm)", "setting": "Alternaria alternata; [7]", "value": "35-37 mm"},
      {"measurement": "Zone of Inhibition with 10 μg/ml of Furanone (mm)", "setting": "Alternaria alternata; [6]", "value": "40-42 mm"},
      {"measurement": "Zone of Inhibition with 10 ng/ml of Furanone (mm)", "setting": "Aureobasidium pullulans; [2]", "value": 0, "unit": "mm"},
      {"measurement": "Zone of Inhibition with 100 ng/ml of Furanone (mm)", "setting": "Aureobasidium pullulans; [3]", "value": 0, "unit": "mm"},
      {"measurement": "Zone of Inhibition with 500 ng/ml of Furanone (mm)", "setting": "Aureobasidium pullulans; [4]", "value": 0, "unit": "mm"},
      {"measurement": "Zone of Inhibition with 1 μg/ml of Furanone (mm)", "setting": "Aureobasidium pullulans; [5]", "value": 0, "unit": "mm"},
      {"measurement": "Zone of Inhibition with 5 μg/ml of Furanone (mm)", "setting": "Aureobasidium pullulans; [7]", "value": "3-10 mm"},
      {"measurement": "Zone of Inhibition with 10 μg/ml of Furanone (mm)", "setting": "Aureobasidium pullulans; [6]", "value": "15-17 mm"}
    ]}
  ]
}
